We go through 28 compounds from patent US20260256751A1, “COMBINATION OF BETA-2-ADRENERGIC RECEPTOR AGONISTS AND GLP-1 RECEPTOR AGONISTS FOR USE IN TREATING HYPERGLYCAEMIA” (ATROGI AB, priority 2023, published 2026).

Assay [1] concerns differentiated L6-myotubes. Briefly: Glucose uptake screen (Biological example 1 of WO 2019/053427). The assay is classed as cell-based. Conditions: compound at 10 μM, activity relative to isoproterenol at 10 μM, read-out: Biological example 1 of WO 2019/053427 (GU). How it is done:
(§1) Compounds described in publications referenced and incorporated herein were screened in accordance with the procedures outlined in Biological example 1 and Biological example 2 of WO 2019/053427.
L6-myoblasts were grown in Dulbecco's Modified Eagle's Medium (DMEM) containing 1 g/L glucose supplemented with 10% fetal bovine serum (FBS), 2 mM L-glutamine, 50 U/mL penicillin, […] streptomycin and 10 mM HEPES. Cells were plated at 1x 10^5 cells per mL in 24-well plates. After reaching 90% confluence the cells were grown in medium containing 2% FBS for 7 days where upon cells differentiated into myotubes. The differentiated L6-myotubes were serum-starved overnight in medium containing 0.5% fatty-acid free BSA and stimulated with Compound A at a final concentration of 1×10^−5 M in the presence of the selective β2-adrenergic receptor antagonist ICI-118551. After 1 h 40 min the cells were washed with warm, glucose free medium twice and another portion of agonist was added to the glucose free medium. After another 20 min of incubation the cells were exposed to 50 nM ^3H-2-deoxyglucose for 10 min before washed in ice cold glucose free medium three times and lysed in 400 µl/well 0.2 M NaOH for 1 h at 60° C. The cell lysate was mixed with 4 ml scintillation buffer (Emulsifier Safe, Perkin Elmer) and the radioactivity was detected in a P-counter (Tri-Carb 4810TR, Perkin Elmer).

The subject of assay [2] is differentiated L6-myotubes. The assay is described as follows: cAMP production relative to isoprenaline (Biological example 2 of WO 2019/053427). The class given is cell-based. Conditions: 0.25 h, compound at 10 μM, activity relative to isoproterenol at 10 μM.
Source text: For example, the level of cAMP production induced by a given compound can be determined by reference to the amount induced by a defined concentration of that compound relative to that induced by the same concentration of a reference compound, such as isoprenaline, using techniques known to those skilled in the art (e.g. following the protocol as described in the biological examples provided in WO 2019/053427, i.e. in cells, such as differentiated L6-myotubes, having been stimulated with isoprenaline or the compound with a final concentration of 1×10^−5 M, for 15 min in stimulation buffer, such as HBSS supplemented with 1% BSA, 5 mM HEPES and 1 mM IBMX, at pH 7.4).
as §1
For orientation: cAMP levels reflect the balance of adenylyl cyclase and phosphodiesterase activity.

With `CC(=O)N[C@H]1CC[C@H](CC(C)(C)NC[C@H](O)c2cccc(F)c2)CC1` [Compound 383, N-[(1R,4r)-4-{2-[(R)-2-(m-fluorophenyl)-2-hydroxyethylamino]-2-methylpropyl}cyclohexyl]acetamide], the Emax at 10 µM in assay [1] was above 75%; in assay [2] it was 25 to 50%. As to `CC1(C)CC[C@H]([C@H](O)c2ccc(F)cc2)N1` [Compound 173, (R)-[(R)-5,5-dimethyl-2-pyrrolidinyl](p-fluorophenyl)methanol], the Emax at 10 µM in assay [1] was 50 to 75%; in assay [2], below 25%.

As for `COC(=O)[C@H]1CC[C@H](C(C)(C)NC[C@H](O)c2cccc(F)c2)CC1` [Compound 367, (1R,4r)-8-[(R)-2-(m-fluorophenyl)-2-hydroxyethylamino]-7-methoxy-p-menthan-7-one], the Emax at 10 µM is above 75% in assay [1] and 25 to 50% in assay [2]. For `CN(C)S(=O)(=O)[C@H]1CC[C@H](CC(C)(C)NC[C@H](O)c2cncc(F)c2)CC1` [Compound 465, (R)-2-{1,1-dimethyl-2-[(1r,4R)-4-(dimethylaminosulfonyl)cyclohexyl]ethylamino}-1-(5-fluoro-3-pyridyl)-1-ethanol], in that order: 50 to 75% and 25 to 50%. For `CC(C)(C[C@H]1CC[C@H](NS(=O)(=O)C(F)(F)F)CC1)NC[C@H](O)c1cccc(F)c1` [Compound 458, (R)-2-{1,1-dimethyl-2-[(1r,4R)-4-(trifluoromesylamino)cyclohexyl]ethylamino}-1-(m-fluorophenyl)-1-ethanol], in that order: above 75% and below 25%. On to `COc1ccc(CC23CCC([C@@H](O)c4cccc(F)c4)(CC2)N3)cc1` [Compound 400, (S)-(m-fluorophenyl)(4-[(p-methoxyphenyl)methyl]-7-azabicyclo[2.2.1]hept-1-yl}methanol], for which the Emax at 10 µM in assay [1] was 50 to 75%; in assay [2], below 25%. With `CC(C)(C)NC[C@H](O)c1ccc(F)c(N)c1F` [Compound 149, (R)-1-(3-amino-2,4-difluorophenyl)-2-(tert-butylamino)-1-ethanol], the Emax at 10 µM in assay [1] is above 75%; in assay [2], 25 to 50%. For `CC(C)(C[C@H]1CC[C@H](N)CC1)NC[C@@H](O)c1cccc(C#N)n1` [Compound 415, 6-[(R)-2-{1,1-dimethyl-2-[(1r,4R)-4-aminocyclohexyl]ethylamino}-1-hydroxyethyl]-2-pyridinecarbonitrile], in that order: 50 to 75% and below 25%.

`CC(=O)N[C@H]1CC[C@@H](C[C@@H]2CC[C@H]([C@@H](O)c3cccc(F)c3)N2)CC1` [Compound 483, N-[(1R,4s)-4-({(2S,5R)-5-[(S)-(m-fluorophenyl)hydroxymethyl]-2-pyrrolidinyl}methyl)cyclohexyl]acetamide]: the Emax at 10 µM in assay [1] and in assay [2] was below 25% each time.

For the compound `CC(=O)N(C)[C@H]1CC[C@H](CC(C)(C)NC[C@H](O)c2cccc(F)c2)CC1` [Compound 491, N-[(1R,4r)-4-{2-[(R)-2-(m-fluorophenyl)-2-hydroxyethylamino]-2-methylpropyl}cyclohexyl]-N-methylacetamide], the Emax at 10 µM is above 75% in assay [1] and below 25% in assay [2]. In the case of `CC1(C)C[C@@H]([C@H](O)c2cccc(F)c2)N1` [Compound 200, (R)-[(S)-4,4-dimethyl-2-azetidinyl](m-fluorophenyl)methanol], the Emax at 10 µM in assay [1] and in assay [2] was below 25% in each case. As to `CO[C@H]1CC[C@H](C[C@H]2CC[C@H]([C@H](O)c3cncc(F)c3)N2)CC1` [Compound 341, (R)-[(2R,5R)-5-{[(1r,4R)-4-methoxycyclohexyl]methyl}-2-pyrrolidinyl](5-fluoro-3-pyridyl)methanol], the Emax at 10 µM was above 75% in assay [1] and below 25% in assay [2]. As to `CCC[C@H]1CCC[C@@H]([C@@H](O)c2cccc(O)c2)N1` [Compound 121, (S)-[(2S,6S)-6-propyl-2-piperidyl](m-hydroxyphenyl)methanol], the Emax at 10 µM was above 75% in assay [1] and below 25% in assay [2]. On to `CS(=O)(=O)N(Cc1ccccc1)c1ccc(CC23CCC([C@H](O)c4cccc(F)c4)(CC2)N3)cc1` [Compound 473, (R)-[4-({p-[(benzyl)-N-mesylamino]phenyl}methyl)-7-azabicyclo[2.2.1]hept-1-yl](m-fluorophenyl)methanol], for which the Emax at 10 µM in assay [1] was 25 to 50%; in assay [2], below 25%. For `CS(=O)(=O)N(Cc1ccccc1)CC12CCC([C@@H](O)c3cccc(F)c3)(CC1)N2` [Compound 538, (S)-(4-{[(benzyl)-N-mesylamino]methyl}-7-azabicyclo[2.2.1]hept-1-yl)(m-fluorophenyl)methanol], in that order: 50 to 75% and below 25%. For `CCC[C@H]1CCC[C@H]([C@H](O)c2cccc(O)c2)N1` [Compound 64, (R)-[(2R,6S)-6-propyl-2-piperidyl](m-hydroxyphenyl)methanol], in that order: above 75% and below 25%. For `CCC[C@@H]1CCC[C@@H]([C@H](O)c2cccc(Cl)c2)N1` [Compound 115, (R)-[(2S,6R)-6-propyl-2-piperidyl](m-chlorophenyl)methanol], in that order: above 75% and below 25%. As to `O[C@H](c1cccc(F)c1)C12CCC(CCc3ccc(OC(F)(F)F)cc3)(CC1)N2` [Compound 546, (R)-(m-fluorophenyl){4-[2-(p-trifluoromethoxyphenyl)ethyl]-7-azabicyclo[2.2.1]hept-1-yl}methanol], the Emax at 10 µM in assay [1] and in assay [2] was below 25% in each case. As for `CCCCNCC(O)c1cc(Cl)c(N)c(Cl)c1` (stereo not shown) [Compound 29, 1-(4-amino-3,5-dichlorophenyl)-2-(butylamino)-1-ethanol], the results for the Emax at 10 µM in assay [1] and in assay [2] were above 75% and 25 to 50%, respectively. For `CC1(C)C[C@H]([C@@H](O)c2cncc(F)c2)N1` [Compound 217, (S)-[(R)-4,4-dimethyl-2-azetidinyl](5-fluoro-3-pyridyl)methano], in that order: 25 to 50% and below 25%. For `CC(C)(CC[C@H]1CC[C@H](O)CC1)NC[C@H](O)c1cncc(F)c1` [Compound 289, (R)-2-{1,1-dimethyl-3-[(1r,4S)-4-hydroxycyclohexyl]propyl-amino}-1-(5-fluoro-3-pyridyl)-1-ethanol], in that order: 25 to 50% and below 25%.

Turning to `CCCCNC[C@H](O)c1csc(C(F)(F)F)n1` [Compound 72, (S)-2-(butylamino)-1-[2-(trifluoromethyl)-1,3-thiazol-4-yl]-1-ethanol], the Emax at 10 µM is 25 to 50% in assay [1] and below 25% in assay [2]. Consider `O[C@H](c1ccccc1F)C12CCC(CCc3cccnc3)(CC1)N2` [Compound 444, (R)-(o-fluorophenyl){4-[2-(3-pyridyl)ethyl]-7-azabicyclo[2.2.1]hept-1-yl}methanol], for which the Emax at 10 µM in assay [1] is above 75%; in assay [2], 50 to 75%. For `O[C@@H](CNCCC[C@H]1CC[C@H](OCc2ccccc2)CC1)c1cncc(F)c1` [Compound 276, (R)-1-(5-fluoro-3-pyridyl)-2-{3-[(1r,4S)-4-(benzyloxy)cyclohexyl]pro-pylamino}-1-ethanol], in that order: 25 to 50% and below 25%.

`CS(=O)(=O)Nc1cccc(CC23CCC([C@H](O)c4cccc(F)c4)(CC2)N3)c1` [Compound 515, (R)-(m-fluorophenyl)(4-{[m-(mesylamino)phenyl]methyl}-7-azabicyclo[2.2.1]hept-1-yl)methanol]: the Emax at 10 µM in assay [1] lay in the range of 50 to 75%; in assay [2], 25 to 50%. With `CNS(=O)(=O)[C@H]1CC[C@H](CC(C)(C)NC[C@H](O)c2cncc(F)c2)CC1` [Compound 478, (R)-2-{1,1-dimethyl-2-[(1r,4R)-4-(methylaminosulfonyl)cyclohexyl]ethylamino}-1-(5-fluoro-3-pyridyl)-1-ethanol], the Emax at 10 µM is 25 to 50% in assay [1] and below 25% in assay [2].

Consider `Oc1ccc(C(O)CNCC2CCCCC2)cc1` (stereo not shown) [Compound 6, 2-[(cyclohexylmethyl)ami-no]-1-(p-hydroxyphenyl)-1-ethanol], for which the Emax at 10 µM in assay [1] was above 75%; in assay [2], below 25%. Regarding `Oc1ccc(C(O)CNCCCC(F)(F)F)cc1` (stereo not shown) [Compound 31, 1-(p-hydroxyphenyl)-2-(4,4,4-trifluorobutylamino)-1-ethanol], the Emax at 10 µM in assay [1] lay within 50 to 75%.
